Source: patent US20160019374A1, “METHODS FOR ESTABLISHING COMBINATIONS OF KINASE INHIBITORS FOR THE TREATMENT OF MEDICAL CONDITIONS” (SALGOMED, INC., priority 2014, published 2016)

What was measured:
[1] = system: A549 (lung adenocarcinoma); assay: Kinase inhibitor screen, selectivity = IMR-90 to A549 viability ratio (ATPlite 1 Step); conditions: single drugs at 1000 nM, 72 hours, 244 KIs screened, FIG. 2
Description: Cell lines IMR-90 (normal lung fibroblast) and A549 (lung adenocarcinoma) were cultured in RPMI 1640 (Hyclone) supplemented with 10% Canadian characterized fetal bovine serum (Hyclone), 1% 200 mM L-glutamine (Omega), and 1% penicillin/streptomycin (Omega). The media for the cells were renewed every 3 days and kept at 80-90% confluency. Cells were maintained in a humidified environment at 37° C. and 5% CO2.
IMR-90 (1500 cells/well) and A549 (750 cells/well) were seeded on 384-well microplates (Grenier Bio-One) and incubated for 3 hours before the addition of kinase inhibitor(s). The reason that IMR-90 was seeded at double the cell density of A549 is due to the difference in cell division. IMR-90's doubling time is 36-48 hours whereas A549's is 22 hours. […] Furthermore, both A549's and IMR-90's final confluency at 72 hrs is 90-95% and within the range of the ATPlite 1 step assay. ECHO 555 Liquid Handler (Labcyte) was used to dispense nanoliter volumes of each KI to 384-well plates with cells attached (wet dispense). The final volume in the plate is 40 uL and cells were incubated for 72 hours with KI treatment.
ATPlite 1 Step (Perkin Elmer) was used to evaluate the cell number and cytotoxicity. ATP measurements were done by dispensing 20 uL of the ATPlite 1 Step solution to each well to a final volume of 60 uL. The plate was placed on a shaker at 1100 rpm and the luminescence activity was detected by Analyst GT Plate Reader. The percent (%) of control is the quantity of ATPlite 1 step measurement of the treated versus the untreated wells of each individual cell type.
The 244 kinase inhibitors (KIs) of the EMD drug library were screened at 1000 nM individually and the treatment lasted for 72 hours.
where vN indicates the viability of normal cells (IMR90) after treatment, and vc the viability of cancer cells (A549) after treatment. […] For the other 243 KIs we used the standard dose of 1000 nM.

primary myoblasts = assay: Protection of primary myoblasts against 0.1% hypoxia (viability screen); assay type: cell-based; conditions: single-drug screening of EMD library
Description: We used our method to predict synergistic effects between four kinase inhibitors: G13, O20, I15, and K10. […] Out of 244 drugs from the EMD library of kinase inhibitors, we first selected 58 drugs that have a positive effect on cell survivability against hypoxia. Single-drug screening results with these drugs were used as a training set to build a regression model that uses the kinase catalytic activity as predictor of the viability. The model assumed a dependence of the viability Vii of the form of Equation (V)

Structure (SMILES) | selectivity rank in primary screen (IMR-90 to A549 viability ratio) [1] | selectivity rank in primary screen (IMR-90 to A549 viability ratio) ([1]; listed as PDK1/Akt1/Flt3 Dual Pathway Inhibitor) | protection of primary myoblasts against hypoxia (primary myoblasts)
O=C1c2ccccc2-c2nc3nnnn3nc21 [A15, PDK1/Akt1/Flt3 Dual Pathway Inhibitor] | top ten most selective | top hit | 
c1nc2nc(Nc3ccc(N4CCOCC4)cc3)nc(NC3CCCCC3)c2[nH]1 [N05, Reversine] | top ten most selective |  | 
O=C1c2ccccc2-[n+]2ccc3c([nH]c4ccccc43)c21 [G10, Fascaplysin, Synthetic] | top ten most selective |  | 
COc1ccc2c(c1)/C(=C/c1cnc[nH]1)C(=O)N2 [O20, SU9516] | top ten most selective |  | protect primary myoblasts against 0.1% hypoxia
CC(C)c1nn(-c2c(Cl)cccc2Cl)c2nc(Cc3ccc(OCCO)cc3)[nH]c(=O)c12 [E20, Cdk/Crk In.] | top ten most selective |  | 
Nc1nc(Nc2ccc(S(N)(=O)=O)cc2)nn1C(=S)Nc1c(F)cccc1F [C16, Cdk1/2 In. III] | top ten most selective |  | 
Nc1cccc(-c2cc3c(Oc4cccc(O)c4)ncnc3[nH]2)c1 [M16, GSK3b In. XII, TWS119] | top ten most selective |  | 
NS(=O)(=O)c1ccc(N=Nc2c(O)[nH]c3ccc(Br)cc23)cc1 [D07, Cdk2 In. II] | top ten most selective |  | 
Cc1ccc([N+](=O)[O-])cc1S(=O)(=O)N(C)/N=C/c1cnc2ccc(Br)cn12.Cl [L13, PI 3-Kα In. VIII] | top ten most selective |  | 
Cc1cc(I)ccc1Nc1c(C(=O)NOCC2CC2)cc(F)c(F)c1F [H15, MEK1/2 In. II] | top ten most selective |  | 
